From patent publication US20240217953A1, “BICYCLIC SUBSTITUTED AROMATIC CARBOXYLIC ACID COMPOUNDS” (CHIA TAI TIANQING PHARMACEUTICAL GROUP CO., LTD., priority 2021, published 2024)

Key:
[1] = biological target: complement alternative pathway in human serum; experiment: Inhibition of Wieslab complement alternative pathway activation (enzyme activity determination); type: biochemical; details: human serum diluted 1:23, Wieslab alternative pathway kit, absorbance at 405 nm; read-out: IC50 for alternative pathway membrane attack complex (AP MAC)
Experimental: To determine the inhibitory activity of the test compounds against the complement alternative pathway in human serum by using a Wieslab complement system alternative pathway kit.
The serum was diluted with a diluent (1:23). Drugs were added to the diluted serum in 8 concentration gradients, with the highest concentration of 10 mM or 50 mM and 5-fold gradient dilution. The resulting mixture was incubated at room temperature for 15 min. The compound and the serum mixture were added to a 96-well plate (100 μL/well) provided in the kit and activated at 37° C. for 1 h. The mixture was washed three times with a washing buffer. The detection antibody (100 μL) provided in the kit was added and the mixture was incubated at room temperature for 30 min. The mixture was washed three times with a washing buffer. A substrate (100 μL) was added and the mixture was incubated at room temperature for 30 min. The absorbance at 405 nm was measured using a microplate reader.

[2] = biological target: human complement Factor B protein (Homo sapiens, UniProt P00751); experiment: Human complement Factor B protein binding determination (TR-FRET method); details: biotinylated Factor B 25 nM, Cy5-labeled probe 75 nM, PBS pH 7.4, 2 h
human complement Factor B protein, sequence (P00751 26-764): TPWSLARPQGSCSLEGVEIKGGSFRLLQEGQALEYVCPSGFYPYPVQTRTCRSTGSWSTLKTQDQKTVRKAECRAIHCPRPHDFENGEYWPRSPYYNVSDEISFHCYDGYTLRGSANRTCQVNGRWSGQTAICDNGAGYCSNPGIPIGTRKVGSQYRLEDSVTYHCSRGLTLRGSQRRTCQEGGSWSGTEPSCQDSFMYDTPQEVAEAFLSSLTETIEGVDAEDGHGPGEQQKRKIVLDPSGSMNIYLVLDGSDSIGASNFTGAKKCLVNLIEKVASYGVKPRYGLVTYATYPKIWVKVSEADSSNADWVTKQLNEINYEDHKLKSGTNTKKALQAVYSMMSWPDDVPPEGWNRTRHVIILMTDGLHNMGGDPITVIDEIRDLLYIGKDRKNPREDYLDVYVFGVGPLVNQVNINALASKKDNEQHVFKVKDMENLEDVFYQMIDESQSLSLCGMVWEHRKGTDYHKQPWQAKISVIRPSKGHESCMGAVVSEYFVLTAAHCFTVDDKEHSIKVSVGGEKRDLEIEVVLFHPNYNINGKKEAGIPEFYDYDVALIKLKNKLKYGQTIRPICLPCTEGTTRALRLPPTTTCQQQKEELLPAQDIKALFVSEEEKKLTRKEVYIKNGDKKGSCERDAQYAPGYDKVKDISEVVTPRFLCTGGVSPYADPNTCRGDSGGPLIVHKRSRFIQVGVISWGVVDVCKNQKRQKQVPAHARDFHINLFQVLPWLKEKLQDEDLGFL
Experimental: To determine the binding activity of the test compounds to human complement Factor B protein by using TR-FRET method.
Drugs were added to phosphate buffered saline PBS (pH 7.4) starting at 10 μM with 4-fold dilution and 10 concentrations in total. […] Time-resolved fluorescence resonance energy transfer (TR-FRET) data was measured using 330 nm as the excitation wavelength and 665 nm as the emission wavelength.

[3] = Pharmacokinetic study in rats; type: in vivo; details: rat; male SD rats, oral intragastric administration, 10 mg/kg, plasma
Experimental: To determine the drug concentration in the plasma of the test animals (male SD rats) at different time points after oral intragastric administration of the compounds disclosed herein by an LC/MS/MS method. To investigate the pharmacokinetic performance of the compounds disclosed herein in rats and to evaluate the pharmacokinetic characteristics.
Healthy male rats weighing 200-300 g, 2 rats in each group.
The compound disclosed herein was formulated into a 1 mg/mL clear solution with an aqueous solution of 0.5% MC (4000 cP)/0.5% Tween 80. Rats, after fasting overnight, were subjected to oral intragastric administration at a dose of 10 mg/kg. Blood was collected before administration and 0.25, 0.5, 1, 2, 4, 7, and 24 h after the administration, placed in heparin anticoagulation tubes, and centrifuged at 7000 rpm (5204 g) at 4° C. The plasma was separated and stored at −80° C. Four hours after administration, feeding was resumed. LC/MS/MS method was used to determine the content of the test compound in the plasma of the rats after oral administration. The plasma samples were analyzed after pretreatment to precipitate proteins.

COc1cc(C)c2[nH]ccc2c1CN1C2CCCC1(c1ccc(C(=O)O)cc1)CC2 (single isomer, unassigned) [Compound 7A]
IC50 [1]: < 100 nM
IC50 [2]: < 100 nM

CCOC1CC2CCC(c3ccc(C(=O)O)cn3)(C1)N2Cc1c(OC)cc(C)c2[nH]ccc12 (single isomer, unassigned) [Compound 9A]
IC50 [1]: < 100 nM
IC50 [2]: < 100 nM

COc1cc(C)c2[nH]ccc2c1CN1CCC2CC1(c1ccc(C(=O)O)cc1)CCN2CC(F)(F)F (stereo not drawn) [Compound 2]
IC50 [1]: < 100 nM
AUC(0-t) [3]: 14.7 µM·h
Cmax [3]: 3.25 µM
Tmax [3]: 0.5 h
half-life [3]: 4.65 h

COc1cc(C)c2[nH]ccc2c1CN1CCC2CC1(c1ccc(C(=O)O)cc1)CCN2CC(F)F (stereo not drawn) [Compound 3]
IC50 [1]: < 100 nM

CCOC1CC2CCC(c3ccc(C(=O)O)nc3)(C1)N2Cc1c(OC)cc(C)c2[nH]ccc12 (stereo not drawn) [Compound 11]
IC50 [2]: < 100 nM

COc1cc(C)c2[nH]ccc2c1CN1C2CCC1(c1ccc(C(=O)O)cc1)CC(C)C2 (stereo not drawn) [Compound 12]
IC50 [2]: < 100 nM
